According to patent publication US8951964B2, “Phenanthridine macrocyclic hepatitis C serine protease inhibitors” (priority 2010, dated 2015):

Tests used:
Type in all cases: cell-based, HCV
[1] = tested on: genotype 1a replicon (1a-H77); test: 1a stable replicon (luciferase reporter); conditions: Hepatitis C virus, Huh-7, luciferase reporter, HuH-7 cells, 5% FBS
[2] = tested on: genotype 1b replicon (1b-Con1, 1b-N); test: 1b stable replicon (luciferase reporter); conditions: Hepatitis C virus, HuH-7 cells, 5% FBS
[3] = tested on: genotype 1a transient replicon (1a-H77); test: 1a transient replicon (luciferase reporter); conditions: Hepatitis C virus, HuH-7 cells, 5% FBS
[4] = tested on: genotype 1b transient replicon; test: 1b transient replicon (luciferase reporter); conditions: Hepatitis C virus, HuH-7 cells, 5% FBS
[5] = tested on: genotype 3a NS3 gene in transient replicon; test: 3a transient replicon (luciferase reporter); conditions: Hepatitis C virus, Huh-7, read-out: 3a transient replicon (nM)

SMILES	EC50 [1]	EC50 [2]	EC50 [3]	EC50 [4]	EC50 [5]
Cn1ccc(C(=O)N[C@H]2CCCCC/C=C\[C@@H]3C[C@@]3(C(=O)NS(=O)(=O)C3(C)CC3)NC(=O)[C@@H]3C[C@@H](Oc4nc5cc(F)ccc5c5cc(F)ccc45)CN3C2=O)n1	0.1 to 0.5 nM	< 0.1 nM	0.1 to 0.5 nM	0.1 to 0.5 nM	–
Cc1cc(C(=O)N[C@H]2CCCCC/C=C\[C@@H]3C[C@@]3(C(=O)NS(=O)(=O)C3CC3)NC(=O)[C@@H]3C[C@@H](Oc4nc5cc(F)ccc5c5cc(OC(F)(F)F)ccc45)CN3C2=O)no1	–	–	< 0.1 nM	0.1 to 0.5 nM	> 1 nM
Cc1cc(C(=O)N[C@H]2CCCCC/C=C\[C@@H]3C[C@@]3(C(=O)NS(=O)(=O)C3CC3)NC(=O)[C@@H]3C[C@@H](Oc4nc5ccccc5c5cc(OC(F)(F)F)ccc45)CN3C2=O)no1	–	–	< 0.1 nM	0.1 to 0.5 nM	> 1 nM
Cn1ccc(C(=O)N[C@H]2CCCCC/C=C\[C@@H]3C[C@@]3(C(=O)NS(=O)(=O)C3CC3)NC(=O)[C@@H]3C[C@@H](Oc4nc5ccccc5c5cc(OC(F)(F)F)ccc45)CN3C2=O)n1	–	–	0.1 to 0.5 nM	0.1 to 0.5 nM	> 1 nM
CC1(S(=O)(=O)NC(=O)[C@@]23C[C@H]2/C=C\CCCCC[C@H](NC(=O)c2ccon2)C(=O)N2C[C@H](Oc4nc5ccccc5c5cc(F)ccc45)C[C@H]2C(=O)N3)CC1	–	–	< 0.1 nM	0.1 to 0.5 nM	0.5 to 1 nM
Cc1ccc(C(=O)N[C@H]2CCCCC/C=C\[C@@H]3C[C@@]3(C(=O)NS(=O)(=O)C3(C)CC3)NC(=O)[C@@H]3C[C@@H](Oc4nc5ccccc5c5cc(F)ccc45)CN3C2=O)o1	–	–	0.1 to 0.5 nM	0.1 to 0.5 nM	0.1 to 0.5 nM
Cn1ccc(C(=O)N[C@H]2CCCCC/C=C\[C@@H]3C[C@@]3(C(=O)NS(=O)(=O)C3(C)CC3)NC(=O)[C@@H]3C[C@@H](Oc4nc5ccccc5c5cccc(F)c45)CN3C2=O)n1	< 0.1 nM	0.1 to 0.5 nM	0.1 to 0.5 nM	0.1 to 0.5 nM	–
Cn1ccc(C(=O)N[C@H]2CCCCC/C=C\[C@@H]3C[C@@]3(C(=O)NS(=O)(=O)C3CC3)NC(=O)[C@@H]3C[C@@H](Oc4nc5cc(OC(F)(F)F)ccc5c5ccccc45)CN3C2=O)n1	< 0.1 nM	< 0.1 nM	< 0.1 nM	0.1 to 0.5 nM	–
Cc1ccc(C(=O)N[C@H]2CCCCC/C=C\[C@@H]3C[C@@]3(C(=O)NS(=O)(=O)C3(C)CC3)NC(=O)[C@@H]3C[C@@H](Oc4nc5cc(F)ccc5c5cc(F)ccc45)CN3C2=O)s1	–	–	0.1 to 0.5 nM	0.1 to 0.5 nM	> 1 nM
CC1(S(=O)(=O)NC(=O)[C@@]23C[C@H]2/C=C\CCCCC[C@H](NC(=O)c2ccn(C(F)F)n2)C(=O)N2C[C@H](Oc4nc5cc(F)ccc5c5ccc(OC(F)(F)F)cc45)C[C@H]2C(=O)N3)CC1	–	–	0.1 to 0.5 nM	0.1 to 0.5 nM	> 1 nM
Cn1ccc(C(=O)N[C@H]2CCCCC/C=C\[C@@H]3C[C@@]3(C(=O)NS(=O)(=O)C3(C)CC3)NC(=O)[C@@H]3C[C@@H](Oc4nc5ccccc5c5ccc(OC(F)(F)F)cc45)CN3C2=O)n1	–	–	0.1 to 0.5 nM	0.1 to 0.5 nM	0.1 to 0.5 nM
Cc1ccc(C(=O)N[C@H]2CCCCC/C=C\[C@@H]3C[C@@]3(C(=O)NS(=O)(=O)C3(C)CC3)NC(=O)[C@@H]3C[C@@H](Oc4nc5ccccc5c5cc(F)ccc45)CN3C2=O)s1	–	–	0.1 to 0.5 nM	0.1 to 0.5 nM	> 1 nM
Cn1ccc(C(=O)N[C@H]2CCCCC/C=C\[C@@H]3C[C@@]3(C(=O)NS(=O)(=O)C3(C)CC3)NC(=O)[C@@H]3C[C@@H](Oc4nc5cc(F)ccc5c5ccc(OC(F)(F)F)cc45)CN3C2=O)n1	–	–	< 0.1 nM	0.1 to 0.5 nM	0.1 to 0.5 nM
Cc1cc(C(=O)N[C@H]2CCCCC/C=C\[C@@H]3C[C@@]3(C(=O)NS(=O)(=O)C3(C)CC3)NC(=O)[C@@H]3C[C@@H](Oc4nc5cc(F)ccc5c5ccc(OC(F)(F)F)cc45)CN3C2=O)no1	–	–	< 0.1 nM	0.1 to 0.5 nM	> 1 nM
CC1(S(=O)(=O)NC(=O)[C@@]23C[C@H]2/C=C\CCCCC[C@H](NC(=O)c2ccn(C(F)F)n2)C(=O)N2C[C@H](Oc4nc5ccccc5c5ccc(OC(F)(F)F)cc45)C[C@H]2C(=O)N3)CC1	–	–	0.1 to 0.5 nM	0.1 to 0.5 nM	> 1 nM
Cc1cc(C(=O)N[C@H]2CCCCC/C=C\[C@@H]3C[C@@]3(C(=O)NS(=O)(=O)C3(C)CC3)NC(=O)[C@@H]3C[C@@H](Oc4nc5ccccc5c5ccc(OC(F)(F)F)cc45)CN3C2=O)no1	–	–	< 0.1 nM	0.1 to 0.5 nM	> 1 nM
Cc1ccc(C(=O)N[C@H]2CCCCC/C=C\[C@@H]3C[C@@]3(C(=O)NS(=O)(=O)C3(C)CC3)NC(=O)[C@@H]3C[C@@H](Oc4nc5ccccc5c5ccc(OC(F)(F)F)cc45)CN3C2=O)o1	–	–	0.1 to 0.5 nM	0.1 to 0.5 nM	< 0.1 nM
CC1(S(=O)(=O)NC(=O)[C@@]23C[C@H]2/C=C\CCCCC[C@H](NC(=O)[C@H](O)C(F)(F)F)C(=O)N2C[C@H](Oc4nc5cc(F)ccc5c5cc(F)ccc45)C[C@H]2C(=O)N3)CC1	–	–	< 0.1 nM	< 0.1 nM	> 1 nM

SMILES	EC50 [1]	EC50 [2]	EC50 [3]	EC50 [4]	EC50 [5]
CC1(S(=O)(=O)NC(=O)[C@@]23C[C@H]2/C=C\CCCCC[C@H](NC(=O)c2ccon2)C(=O)N2C[C@H](Oc4nc5cc(OC(F)(F)F)ccc5c5ccccc45)C[C@H]2C(=O)N3)CC1	–	–	< 0.1 nM	< 0.1 nM	0.1 to 0.5 nM
CC1(S(=O)(=O)NC(=O)[C@@]23C[C@H]2/C=C\CCCCC[C@H](NC(=O)c2ccon2)C(=O)N2C[C@H](Oc4nc5cc(OC(F)(F)F)ccc5c5cc(F)ccc45)C[C@H]2C(=O)N3)CC1	–	–	0.1 to 0.5 nM	0.1 to 0.5 nM	0.1 to 0.5 nM
Cc1ccc(C(=O)N[C@H]2CCCCC/C=C\[C@@H]3C[C@@]3(C(=O)NS(=O)(=O)C3(C)CC3)NC(=O)[C@@H]3C[C@@H](Oc4nc5cc(OC(F)(F)F)ccc5c5cc(F)ccc45)CN3C2=O)s1	–	–	0.5 to 1 nM	0.1 to 0.5 nM	0.1 to 0.5 nM
CC1(S(=O)(=O)NC(=O)[C@@]23C[C@H]2/C=C\CCCCC[C@H](NC(=O)[C@H](O)C(F)(F)F)C(=O)N2C[C@H](Oc4nc5cc(OC(F)(F)F)ccc5c5ccccc45)C[C@H]2C(=O)N3)CC1	–	–	< 0.1 nM	< 0.1 nM	0.5 to 1 nM
Cn1ccc(C(=O)N[C@H]2CCCCC/C=C\[C@@H]3C[C@@]3(C(=O)NS(=O)(=O)C3(C)CC3)NC(=O)[C@@H]3C[C@@H](Oc4nc5cc(F)ccc5c5cc(OC(F)(F)F)ccc45)CN3C2=O)n1	–	–	0.1 to 0.5 nM	0.1 to 0.5 nM	> 1 nM
CC1(S(=O)(=O)NC(=O)[C@@]23C[C@H]2/C=C\CCCCC[C@H](NC(=O)c2ccon2)C(=O)N2C[C@H](Oc4nc5cc(F)ccc5c5cc(OC(F)(F)F)ccc45)C[C@H]2C(=O)N3)CC1	–	–	< 0.1 nM	0.1 to 0.5 nM	> 1 nM
CC1(S(=O)(=O)NC(=O)[C@@]23C[C@H]2/C=C\CCCCC[C@H](NC(=O)c2ccn(C(F)F)n2)C(=O)N2C[C@H](Oc4nc5cc(F)ccc5c5cc(OC(F)(F)F)ccc45)C[C@H]2C(=O)N3)CC1	–	–	0.1 to 0.5 nM	0.1 to 0.5 nM	> 1 nM
COc1ccc2c(c1)nc(O[C@@H]1C[C@H]3C(=O)N[C@]4(C(=O)NS(=O)(=O)C5(C)CC5)C[C@H]4/C=C\CCCCC[C@H](NC(=O)c4ccn(C)n4)C(=O)N3C1)c1ccc(F)cc12	–	–	0.1 to 0.5 nM	0.1 to 0.5 nM	0.1 to 0.5 nM
COc1ccc2c(c1)nc(O[C@@H]1C[C@H]3C(=O)N[C@]4(C(=O)NS(=O)(=O)C5(C)CC5)C[C@H]4/C=C\CCCCC[C@H](NC(=O)c4ccon4)C(=O)N3C1)c1ccc(F)cc12	–	–	< 0.1 nM	0.1 to 0.5 nM	0.1 to 0.5 nM
COc1ccc2c(c1)nc(O[C@@H]1C[C@H]3C(=O)N[C@]4(C(=O)NS(=O)(=O)C5(C)CC5)C[C@H]4/C=C\CCCCC[C@H](NC(=O)c4ccn(C(F)F)n4)C(=O)N3C1)c1ccc(F)cc12	–	–	0.1 to 0.5 nM	0.1 to 0.5 nM	0.5 to 1 nM
CC1(S(=O)(=O)NC(=O)[C@@]23C[C@H]2/C=C\CCCCC[C@H](NC(=O)[C@H](O)C(F)(F)F)C(=O)N2C[C@H](Oc4nc5cc(OC(F)(F)F)ccc5c5ccc(F)cc45)C[C@H]2C(=O)N3)CC1	–	–	< 0.1 nM	< 0.1 nM	> 1 nM
Cc1ccc(C(=O)N[C@H]2CCCCC/C=C\[C@@H]3C[C@@]3(C(=O)NS(=O)(=O)C3(C)CC3)NC(=O)[C@@H]3C[C@@H](Oc4nc5cc(OC(F)(F)F)ccc5c5ccc(F)cc45)CN3C2=O)s1	–	–	0.1 to 0.5 nM	0.1 to 0.5 nM	> 1 nM
CC1(S(=O)(=O)NC(=O)[C@@]23C[C@H]2/C=C\CCCCC[C@H](NC(=O)c2ccon2)C(=O)N2C[C@H](Oc4nc5cc(OC(F)(F)F)ccc5c5ccc(F)cc45)C[C@H]2C(=O)N3)CC1	–	–	< 0.1 nM	< 0.1 nM	0.5 to 1 nM
CC1(S(=O)(=O)NC(=O)[C@@]23C[C@H]2/C=C\CCCCC[C@H](NC(=O)c2cncs2)C(=O)N2C[C@H](Oc4nc5cc(OC(F)(F)F)ccc5c5ccc(F)cc45)C[C@H]2C(=O)N3)CC1	–	–	0.1 to 0.5 nM	0.1 to 0.5 nM	> 1 nM
Cc1cc(C(=O)N[C@H]2CCCCC/C=C\[C@@H]3C[C@@]3(C(=O)NS(=O)(=O)C3(C)CC3)NC(=O)[C@@H]3C[C@@H](Oc4nc5cc(OC(F)(F)F)ccc5c5ccc(F)cc45)CN3C2=O)no1	–	–	0.1 to 0.5 nM	0.1 to 0.5 nM	> 1 nM
Cn1ccc(C(=O)N[C@H]2CCCCC/C=C\[C@@H]3C[C@@]3(C(=O)NS(=O)(=O)C3(C)CC3)NC(=O)[C@@H]3C[C@@H](Oc4nc5cc(OC(F)(F)F)ccc5c5ccc(F)cc45)CN3C2=O)n1	–	–	< 0.1 nM	< 0.1 nM	0.1 to 0.5 nM
CC1(S(=O)(=O)NC(=O)[C@@]23C[C@H]2/C=C\CCCCC[C@H](NC(=O)[C@H](O)C(F)(F)F)C(=O)N2C[C@H](Oc4nc5ccccc5c5cc(F)ccc45)C[C@H]2C(=O)N3)CC1	–	–	< 0.1 nM	< 0.1 nM	> 1 nM
